Data as given in patent US20070111251A1, “Chemical address tags” (priority 2003, published 2007).

Experiments:
[1] = Additive decomposition of peak excitation and emission wavelengths (model coefficients of A and B groups); settings: for αi^em: influence of A group on peak emission wavelength; for αi^em / αi^ex: A group 1 as baseline; for αi^ex: influence of A group on peak excitation wavelength
Excerpt: The chemical structure of the styryl library is illustrated in FIG. 3. […] Initial analysis focused on measurements of peak emission and excitation wavelength obtained for all styryl products showing a single, localized peak (there were 256 such compounds for emission wavelength, and 193 compounds for excitation wavelength). […] The wavelength for the styryl compound formed by joining A group i with B group j is denoted as λij (or more specifically, λij^ex for excitation wavelength and λij^em for emission wavelength). The additive model λij=ai+βj+εij was fit to the data using least squares yielding parameters αi^ex, αi^em, βj^ex, and βj^em that quantify the influence of each A and B group on the spectrum of the styryl product. […] (FIGS. 8A-8B). […] The predictions were made ignoring interactions between the two functional moieties in the styryl compound. The predicted values were obtained without bias, by holding out the data point to be predicted when training the model.
In preferred embodiments, using the cross-validation approach disclosed herein, each compound was held out in sequence, the model was trained using the remaining compounds, then the wavelength value for the held-out compound was predicted based on the resulting fitted model. This process produced correlations between measured and predicted values of ρ^em=0.78 (emission) and ρ^ex=0.69 (excitation).
Based on this analysis, the contribution of the A and B functional groups to the fluorescence of the styryl product is quantified using the fitted coefficients αi^ex, βj^ex, […], and βj^em. Since these coefficients are on a scale without origin, in some embodiments, the invention uses the first A group and B group as a baseline, so […], β1^ex=0, and so on. Table 3 contains the model coefficients of all A and B groups for peak excitation and emission wavelength.
Greater values of αi^ex, αi^em, βj^ex, and βj^em indicate greater peak wavelength. Greater values of αi^mito and […] indicate stronger mitochondrial localization. A groups 40 and 41 were not screened for localization. A groups 2, 29, and 33 only formed fluorescent products with a single B group, so were not included in the spectral analysis.
In some embodiments, the wavelength values for peak excitation and emission were fit to the additive model λij=αi+βj+εij, where εij denotes error that is made as small as possible in the fitting process. Using least squares to minimize the function [formula] over all compounds having experimental data yields coefficient estimates αi for each A group and βj for each B group. One set of coefficient estimates is obtained for the excitation values and another set is obtained for the emission values. To predict the wavelength of a new compound formed from A and B groups i* and j* the sum αi*+βj* is used.
In some embodiments, for both the spectral and localization analysis, cross-validation was used to obtain unbiased estimates of the prediction performance. Each compound was held out in sequence, and the coefficients αi and βj were fit to the remaining compounds. These values were then used to form a prediction for the held out compound, then the predicted and experimental values were compared to obtain a measure of the accuracy of prediction. Since the wavelength values are on a continuous scale, the predicted values were compared to the experimental values using Pearson correlation coefficients. The localization values are dichotomous, so the proportion of matching predictions was used to compare predicted and experimental localization values.

mitochondria = assay: QSLR factorial logistic regression of mitochondrial localization (affinity coefficients, cross-validated prediction); design: species or system human; settings: for αi^mito: influence of A group on mitochondrial localization, greater = stronger; for estimated A group affinity coefficient ai: mitochondrial affinity, ±5 for groups always or never mitochondrial
Excerpt: The first column and first row contain the A group and B group labels. The second column and second row contain the estimated A group and B group affinity coefficients (ai and bj respectively). The interior of the table contains the value sij=ai+bj for each compound (where positive values of sij indicate predicted localization to mitochondria, and negative values of sij indicate predicted localization to a non-mitochondrial compartment). The subscript m indicates experimentally determined mitochondrial localization. The subscript o indicates experimentally determined non-mitochondrial localization. The darkened boxes indicate correctly predicted mitochondrial localizations under cross-validation.
Based on this matrix, factorial logistic regression (See, A. Agresti, Categorical Data Analysis, Wiley [2002]) was used to calculate mitochondrial affinity coefficients (ai and bj) for each A and B moiety. (Table 1). Since it is not necessary to observe all possible pairings between A and B building blocks to estimate the affinity coefficients, the QSLR approach can predict localization of unmeasured styryl molecules based on a minimal set of experimentally-determined localizations (see Methods). The methods of the present invention allow assessment of predictivity using the cross-validation technique by holding out one compound and fitting the affinity coefficients using the remaining compounds, predictivity can be assessed by comparing the actual localization of the held-out compound to its predicted localization. Repeating this for every measured compound in the library yields an error rate for the procedure.
Briefly, this technique assigns quantitative scores to each A group (αi^mito) and to each B group (βj^mito), in such a way that αi^mito+βj^mito is positive for compounds with mitochondrial localization, and is negative for compounds lacking mitochondrial localization. […] In additional embodiments, same analysis can be applied to organelles other than mitochondria, provided there are a sufficient number of localizations to specific non-mitochondrial organelles in the combinatorial library of interest for reliable statistical calculations.
In certain embodiments, the predictive performance of the above method was assessed using a cross-validation approach by calculating the proportion of all compounds that are correctly predicted. For cross-validation, each styryl product was set aside in sequence, and the factorial logistic model was fit to the remaining data. Then the resulting A and B scores for the held-out compound were summed. If the sum was positive, the held-out compound was predicted to be mitochondrial, while if the sum was negative, the held-out compound was predicted to be non-mitochondrial. […] The baseline performance of the method scored 104 correct out of 145, or 72%. This number is highly statistically significant compared to random guessing (p-value ˜10^−7). Thus, across the entire library, A and B moieties appear to contribute to localization in an independent, additive fashion.
In some embodiments, subcellular localization data were converted to binary (0/1) values by assigning a value Gij=1 if compound i,j localized to mitochondria (even if it localized to other […] as well), and assigning Gij=0 if compound i,j localized exclusively to any non-mitochondrial cellular structure. Compounds with no localization were omitted from this part of the analysis. The αi and βj coefficients for A or B groups that are always observed to localize to mitochondria, or that never localize to mitochondria, were set to +/−5, respectively. The binary localization data were analyzed using factorial logistic regression. […]

| Compound | αi^em [1] [nm] | αi^ex [1] [nm] | influence of group on peak wavelength [1] | αi^mito (mitochondria) | estimated A group affinity coefficient ai (mitochondria) | influence of A group on mitochondrial localization (mitochondria) |
| --- | --- | --- | --- | --- | --- | --- |
| COc1ccc(C=O)cc1 [A group 10] | −23.7 | 8.1 |  | 1.3 | 1.3 |  |
| COc1ccc(C=O)cc1OC [A group 11] | −26.7 | −14.3 |  | 5.0 | 5.0 |  |
| O=Cc1ccc(OCc2ccccc2)c(OCc2ccccc2)c1 [A group 12] | −22.7 | −36.7 |  | −3.3 | −3.3 |  |
| COc1cc(C=O)cc(OC)c1OC [A group 13] | 0.2 | −44.2 |  | 5.0 | 5.0 |  |
| COc1ccc(C=O)cc1O [A group 15] | −33.1 | −46.9 |  | −0.6 | −0.6 |  |
| O=Cc1ccc(-c2ccccc2)cc1 [A group 17] | −46.6 | −14.3 | bluer | −5.0 | −5.0 | mitochondrial repulsion |
| CC(=O)Nc1ccc(C=O)cc1 [A group 18] | 51.2 | −24.3 | strongly contribute towards the red end of the spectrum | 0.8 | 0.8 |  |
| CN(C)c1ccc(C=O)cc1 [A group 19] | 49.6 | 26.0 | strongly contribute towards the red end of the spectrum | −0.2 | −0.2 |  |
| O=Cc1ccccc1[N+](=O)[O-] [A group 20] | 44.5 | 6.5 | the far red shift is not observed | −2.7 | −2.7 |  |
| O=Cc1c[nH]c2ccccc12 [A group 24] | −24.2 | −7.2 |  | −1.7 | −1.7 |  |
| CN(C)c1ccc(C=O)c2ccccc12 [A group 27] | 72.0 | 11.1 | strongly contribute towards the red end of the spectrum | −0.3 | −0.3 |  |
| O=Cc1c(F)c(F)c(F)c(F)c1F [A group 31] | 6.9 | −22.4 |  | 5.0 | 5.0 |  |
| O=Cc1cccc2ccccc12 [A group 32] | −15.0 | −36.1 |  | 5.0 | 5.0 |  |
| O=Cc1c2ccccc2cc2ccccc12 [A group 34] | 58.8 | 14.1 | redder | −5.0 | 5.0 | mitochondrial repulsion |
| O=CC=Cc1ccccc1 [A group 35] | −8.3 | 0.0 |  | −1.8 | −1.8 |  |
| O=CC=Cc1ccccc1[N+](=O)[O-] [A group 36] | 3.8 | −25.3 | the far red shift is not observed | 5.0 | 5.0 |  |

The next lines start with results.

| αi^em [1] [nm] | αi^ex [1] [nm] | influence of group on peak wavelength [1] | Compound | αi^mito (mitochondria) | estimated A group affinity coefficient ai (mitochondria) | influence of A group on mitochondrial localization (mitochondria) |
| --- | --- | --- | --- | --- | --- | --- |
| 38.5 | −44.1 |  | Cc1ccccc1C=O [A group 7] | 5.0 | 5.0 |  |
| 38.5 | 10.9 |  | Cc1ccc(C=O)cc1 [A group 8] | 5.0 | 5.0 |  |
| −17.6 | −36.7 |  | COc1ccccc1C=O [A group 9] | 5.0 | 5.0 |  |
| 0.3 | −1.6 |  | COc1ccc(C=O)c2ccccc12 [A group 14] | −1.2 | −1.2 |  |
| −24.8 | −36.3 |  | O=Cc1ccc(O)cc1 [A group 16] | −1.9 | −1.9 |  |
| 21.6 | −68.0 | the far red shift is not observed | O=Cc1cccc([N+](=O)[O-])c1 [A group 21] | 0.8 | 0.8 |  |
| −10.3 | −52.8 | the far red shift is not observed | O=Cc1ccc([N+](=O)[O-])cc1 [A group 22] | 5.0 | 5.0 |  |
| −10.3 | 6.1 |  | COc1ccc2ccccc2c1C=O [A group 23] | −5.0 | −5.0 |  |
| 44.9 | 2.4 |  | O=Cc1ccc2c(c1)Cc1ccccc1-2 [A group 28] | −5.0 | −5.0 |  |
| −8.0 |  |  | O=Cc1ccccc1F [A group 29] | 5.0 | 5.0 |  |
| 50.1 | 7.4 | redder | O=Cc1ccc(F)cc1 [A group 30] | 5.0 | 5.0 | mitochondrial attraction |
| −26.5 |  | bluer | O=Cc1ccc2ccccc2c1 [A group 33] | 5.0 | 5.0 | mitochondrial attraction |
